Structures are written as SMILES.

The source of these data is US20170001990A1 (Genentech, Inc., priority 2014, published 2017).

The target in the experiment is Human recombinant carboxy-terminal his-tagged LDHA (amino acids 2-332) (Homo sapiens, UniProt P00338). Kind of experiment: LDHA enzyme inhibition assay (NADH fluorescence). Particulars: LDHA IC50 (μM), 1 nM LDHA, NADH and pyruvate, stereochemistry of tested sample given.
The IC50 is the midpoint of a concentration-inhibition curve. With `O=C1CC(c2ccsc2)(c2cccc(Oc3ccc4ncccc4c3)n2)NC(=O)C1Sc1ccccc1Cl` (single isomer, unassigned) [Example 120, 3-(2-chlorophenyl)sulfanyl-6-[6-(6-quinolyloxy)-2-pyridyl]-6-(3-thienyl) piperidine-2,4-dione], the half-inhibitory concentration (IC50) worked out at 0.016 µM. In the case of `O=C1CC(c2ccsc2)(c2cccc(OCCCC(F)(F)F)n2)NC(=O)C1Sc1ccccc1Cl` (single isomer, unassigned) [Example 121, 3-(2-chlorophenyl)sulfanyl-6-(3-thienyl)-6-[6-(4,4,4-trifluorobutoxy)-2-pyridyl]piperidine-2,4-dione] it was 0.008 µM; in that of `O=C1CC(c2ccsc2)(c2cccc(Oc3ccc(F)c(Br)c3)n2)NC(=O)C1Sc1ccccc1Cl` (single isomer, unassigned) [Example 122, 6-[6-(3-bromo-4-fluoro-phenoxy)-2-pyridyl]-3-(2-chlorophenyl)sulfanyl-6-(3-thienyl)piperidine-2,4-dione], 0.022 µM. In the case of `CC(C)CCOc1cccc(C2(c3ccsc3)CC(=O)C(Sc3ccccc3Cl)C(=O)N2)n1` (single isomer, unassigned) [Example 124, 3-((2-chlorophenyl)thio)-6-(6-(isopentyloxy)pyridin-2-yl)-6-(thiophen-3-yl)piperidine-2,4-dione] it was 0.003 µM; in that of `O=C1CC(c2ccsc2)(c2cccc(OCCC3CCCC3)n2)NC(=O)C1Sc1ccccc1Cl` (single isomer, unassigned) [Example 125, 3-((2-chlorophenyl)thio)-6-(6-(2-cyclopentyl-ethoxy)pyridin-2-yl)-6-(thiophen-3-yl) piperidine-2,4-dione], 0.003 µM; in that of `CC(C)(O)CCCOc1cccc(C2(c3ccsc3)CC(=O)C(Sc3ccccc3Cl)C(=O)N2)n1` (single isomer, unassigned) [Example 126, 3-(2-chlorophenyl)sulfanyl-6-[6-(4-hydroxy-4-methyl-pentoxy)-2-pyridyl]-6-(3-thienyl) piperidine-2,4-dione], 0.238 µM.

On to `O=C1CC(c2ccsc2)(c2cccc(Oc3cccc(C(F)F)c3)n2)NC(=O)C1Sc1ccccc1Cl` (single isomer, unassigned) [Example 127, 3-(2-chlorophenyl)sulfanyl-6-[6-[3-(difluoromethyl)phenoxy]-2-pyridyl]-6-(3-thienyl)piperidine-2,4-dione], for which the IC50 stood at 0.008 µM. The figure for `O=C1CC(c2ccsc2)(c2cccc(Oc3cccc4ncccc34)n2)NC(=O)C1Sc1ccccc1Cl` (single isomer, unassigned) [Example 128, 3-(2-chlorophenyl)sulfanyl-6-[6-(5-quinolyloxy)-2-pyridyl]-6-(3-thienyl) piperidine-2,4-dione] is 0.024 µM; for `O=C1CC(c2ccsc2)(c2cccc(Cc3cc(F)cc(F)c3)n2)NC(=O)C1Sc1ccccc1Cl` (single isomer, unassigned) [Example 129, 3-((2-chlorophenyl)thio)-6-(6-(3,5-difluorobenzyl)pyridin-2-yl)-6-(thiophen-3-yl)piperidine-2,4-dione] it is 0.02 µM. The figure for `O=C1CC(c2ccsc2)(c2cccc(OCCC3CCC3)n2)NC(=O)C1Sc1ccccc1Cl` (single isomer, unassigned) [Example 132, 3-((2-chlorophenyl)thio)-6-(6-(2-cyclobutyl-ethoxy)pyridin-2-yl)-6-(thiophen-3-yl)piperidine-2,4-dione] is 0.009 µM. In the case of `CC(C)CCOc1cccc(C2(c3ccsc3)CC(=O)C(Sc3ccccc3Cl)C(=O)N2)n1` (single isomer, unassigned) [Example 133, 3-(2-chlorophenyl)sulfanyl-6-(6-isopentyloxy-2-pyridyl)-6-(3-thienyl) piperidine-2,4-dione] it was 0.089 µM; in that of `O=C1CC(c2ccsc2)(c2cccc(OCCC3CCCC3)n2)NC(=O)C1Sc1ccccc1Cl` (single isomer, unassigned) [Example 134, 3-(2-chlorophenyl)sulfanyl-6-[6-(2-cyclopentyl-ethoxy)-2-pyridyl]-6-(3-thienyl)piperidine-2,4-dione], 0.008 µM. On to `CC(C)(O)CCCOc1cccc(C2(c3ccsc3)CC(=O)C(Sc3ccccc3Cl)C(=O)N2)n1` (single isomer, unassigned) [Example 135, 3-(2-chlorophenyl)sulfanyl-6-[6-(4-hydroxy-4-methyl-pentoxy)-2-pyridyl]-6-(3-thienyl) piperidine-2,4-dione], for which the IC50 was 0.04 µM.

Consider `O=C1CC(c2ccsc2)(c2cccc(Oc3cccc(C(F)F)c3)n2)NC(=O)C1Sc1ccccc1Cl` (single isomer, unassigned) [Example 136, 3-(2-chlorophenyl)sulfanyl-6-[6-[3-(difluoro-methyl)phenoxy]-2-pyridyl]-6-(3-thienyl) piperidine-2,4-dione], for which the half-maximal inhibitory concentration (IC50) amounted to 0.222 µM. The figure for `O=C1CC(c2ccsc2)(c2cccc(Oc3cccc4ncccc34)n2)NC(=O)C1Sc1ccccc1Cl` (single isomer, unassigned) [Example 137, 3-(2-chlorophenyl)sulfanyl-6-[6-(5-quinolyloxy)-2-pyridyl]-6-(3-thienyl) piperidine-2,4-dione] is 0.073 µM; for `O=C1CC(c2ccsc2)(c2cccc(OCCC3CCC3)n2)NC(=O)C1Sc1ccccc1Cl` (single isomer, unassigned) [Example 141, 3-(2-chlorophenyl)sulfanyl-6-[6-(2-cyclobutyl-ethoxy)-2-pyridyl]-6-(3-thienyl)piperidine-2,4-dione] it is 0.003 µM; for `O=C1CC(c2ccsc2)(c2cccc(OCCCC(F)(F)F)n2)NC(=O)C1Sc1ccccc1Cl` (single isomer, unassigned) [Example 142, 3-(2-chlorophenyl)sulfanyl-6-(3-thienyl)-6-[6-(4,4,4-trifluorobutoxy)-2-pyridyl]piperidine-2,4-dione] it is 0.031 µM.

As for `O=C1CC(c2ccsc2)(c2cccc(Oc3ccc(F)c(Br)c3)n2)NC(=O)C1Sc1ccccc1Cl` (single isomer, unassigned) [Example 143, 6-[6-(3-bromo-4-fluoro-phenoxy)-2-pyridyl]-3-(2-chlorophenyl)sulfanyl-6-(3-thienyl)piperidine-2,4-dione], the half-inhibitory concentration (IC50) came to 0.033 µM.

In the case of `O=C1CC(c2ccsc2)(c2cccc(Oc3ccc(F)c(C(F)(F)F)c3)n2)NC(=O)C1Sc1ccccc1Cl` (single isomer, unassigned) [Example 144, 3-(2-chlorophenyl)sulfanyl-6-[6-[4-fluoro-3-(trifluoromethyl)phenoxy]-2-pyridyl]-6-(3-thienyl) piperidine-2,4-dione], the half-maximal inhibitory concentration (IC50) came out at 0.143 µM. The figure for `CC(C)(O)CCOc1cccc(C2(c3ccsc3)CC(=O)C(Sc3ccccc3Cl)C(=O)N2)n1` (single isomer, unassigned) [Example 145, 3-(2-chlorophenyl)sulfanyl-6-[6-(3-hydroxy-3-methyl-butoxy)-2-pyridyl]-6-(3-thienyl)piperidine-2,4-dione] is 0.088 µM; for `O=C1CC(c2ccsc2)(c2cccc(Cc3cc(F)cc(F)c3)n2)NC(=O)C1Sc1ccccc1Cl` (single isomer, unassigned) [Example 146, 3-(2-chlorophenyl)sulfanly-6-[6-[(3,5-difluorophenyl)methyl]-2-pyridyl]-6-(3-thienyl)piperidine-2,4-dione] it is 0.189 µM. The figure for `O=C1CC(c2ccsc2)(c2cccc(OCCCC(F)(F)F)n2)NC(=O)C1Sc1ccccc1Cl` (single isomer, unassigned) [Example 148, 3-(2-chlorophenyl)sulfanyl-6-(3-thienyl)-6-[6-(4,4,4-trifluorobutoxy)-2-pyridyl]piperidine-2,4-dione] is 0.014 µM; for `O=C1CC(c2ccsc2)(c2cccc(Oc3ccc(F)c(Br)c3)n2)NC(=O)C1Sc1ccccc1Cl` (single isomer, unassigned) [Example 149, 6-[6-(3-bromo-4-fluoro-phenoxy)-2-pyridyl]-3-(2-chlorophenyl)sulfanyl-6-(3-thienyl)piperidine-2,4-dione] it is 0.069 µM. Consider `CC(C)(O)CCOc1cccc(C2(c3ccsc3)CC(=O)C(Sc3ccccc3Cl)C(=O)N2)n1` (single isomer, unassigned) [Example 155, 3-(2-chlorophenyl)sulfanyl-6-[6-(3-hydroxy-3-methyl-butoxy)-2-pyridyl]-6-(3-thienyl)piperidine-2,4-dione], for which the 50% inhibitory concentration (IC50) is 0.025 µM.

As to `COc1cc(F)cc(Cc2cccc(C3(c4ccsc4)CC(=O)C(Sc4ccccc4Cl)C(=O)N3)n2)c1` (single isomer, unassigned) [Example 156, 3-(2-chlorophenyl)sulfanyl-6-[6-[(3-fluoro-5-methoxy-phenyl)methyl]-2-pyridyl]-6-(3-thienyl) piperidine-2,4-dione], the IC50 was 0.072 µM. The figure for `O=C1CC(c2ccsc2)(c2cccc(OC3CCCCC3)n2)NC(=O)C1Sc1ccccc1Cl` (single isomer, unassigned) [Example 157, 3-(2-chlorophenyl)sulfanyl-6-[6-(cyclohexoxy)-2-pyridyl]-6-(3-thienyl) piperidine-2,4-dione] is 0.03 µM; for `CC1(COc2cccc(C3(c4ccsc4)CC(=O)C(Sc4ccccc4Cl)C(=O)N3)n2)CC1` (single isomer, unassigned) [Example 158, 3-(2-chlorophenyl)sulfanyl-6-[6-[(1-methylcyclo-propyl)methoxy]-2-pyridyl]-6-(3-thienyl)piperidine-2,4-dione] it is 0.018 µM; for `CC(Oc1cccc(C2(c3ccsc3)CC(=O)C(Sc3ccccc3Cl)C(=O)N2)n1)C1CC1` (single isomer, unassigned) [Example 159, 3-((2-chlorophenyl)thio)-6-(6-(1-cyclopropyl-ethoxy)pyridin-2-yl)-6-(thiophen-3-yl)piperidine-2,4-dione] it is 0.004 µM. Regarding `O=C1CC(c2ccsc2)(c2cccc(Sc3ccc(F)cc3)n2)NC(=O)C1Sc1ccccc1Cl` (single isomer, unassigned) [Example 160, 3-(2-chlorophenyl)sulfanyl-6-[6-(4-fluorophenyl)sulfanyl-2-pyridyl]-6-(3-thienyl)piperidine-2,4-dione], the IC50 was 0.008 µM.
